According to patent US12337024B2, “Larazotide formulations” (Interlude Biopharma Co., priority 2019, dated 2025):
Where two headings read alike, the source gives them in different places. Ends that are not written are not given here.

Experiments:
[1] = tested on: tight junction; assay: Activity as tight junction regulators
[2] = tested on: mice on the Western diet
Method: 77 DIAMOND™ mice were placed on either normal chow (NDNW) or Western Diet (WDSW) and aged up to 8, 20, 28, 36, and 40 weeks, then dosed with 4 kDa FITC-dextran at 600 mg/kg body weight by gavage. Four hours after the dosing, at least 20 μL of serum was taken by tail vein nick. A competition ELISA, which measures small dextran polymers (conjugated or unconjugated), was used to quantify serum dextran concentration.
The subsequent experiment evaluated the effects of orally administered larazotide acetate to mice on the Western diet. The study design is depicted in FIG. 2. Specifically, 8 groups of mice were placed on WDSW diets for 16 weeks and administered larazotide (dosed in drinking water or oral gavage), pioglitazone comparator, or vehicle from 8-16 weeks. Improvement in leaky gut was assessed by dosing the mice with unconjugated dextran at 600 mg/kg via oral gavage at baseline and end of study, serum was collected 4 hours later, and serum dextran concentrations were measured.

[3] = tested on: celiac disease symptoms; details: clinical trials, cited from earlier work

With “GVLVQPG (Synthetic polymer) [larazotide-derived fragment missing N-terminal glycine residue]” the “activity as tight junction regulators” value [1] was “inactive”.
For larazotide acetate, the serum dextran concentrations ([2]; mice on Western diets, various doses, serum 4 hours after dextran 600 mg/kg gavage) was “successful in lowering the serum dextran concentrations”.
With “VLVQPG (Synthetic polymer) [larazotide-derived fragment missing N-terminal glycine residues]” the “activity as tight junction regulators” value [1] was “inactive”.
For GGVLVQPG [larazotide], the gut integrity ([2]; mice on Western diet, larazotide from 8-16 weeks, drinking water or oral gavage, FIG. 3) is given as “improved gut integrity”, the “activity as tight junction regulator when mixed with fragments” value ([1]; full length larazotide mixed with fragments GVLVQPG and VLVQPG) is given as “activity is completely abolished” and the “reduction of celiac disease symptoms” value ([3]; higher doses (e.g., 1 mg and 2 mg doses)) is given as “attenuation of activity, or no activity at all”. For the same substance, the “reduction of celiac disease symptoms” value ([3]; lower doses (e.g., 0.5 mg dose)) was “benefit at reducing celiac disease symptoms”.
